According to the NIST ThermoML archive (doi:10.1016/j.fluid.2010.08.022):
Numbers after ± are expanded uncertainties.

Test: refractive index (Na D-line) (dimensionless)
Settings: 101.33 kPa, Standard Abbe refractometry

Row | Structure (SMILES) | refractive index (278.45 K, Crystal) | refractive index (288.35 K, Liquid crystal of unknown type) | refractive index (298.15 K, Liquid crystal of unknown type) | refractive index (308.25 K, Liquid crystal of unknown type) | refractive index (313.21 K, Liquid crystal of unknown type) | refractive index (323.45 K, Liquid crystal of unknown type) | refractive index (333.25 K, Liquid crystal of unknown type) | refractive index (278.35 K, Liquid crystal of unknown type) | refractive index (288.25 K, Liquid crystal of unknown type) | refractive index (298.05 K, Liquid crystal of unknown type) | refractive index (308.22 K, Liquid crystal of unknown type) | refractive index (318.23 K, Liquid crystal of unknown type) | refractive index (328.05 K, Liquid crystal of unknown type) | refractive index (338.05 K, Liquid crystal of unknown type) | refractive index (341.15 K, Liquid crystal of unknown type) | refractive index (343.25 K, Liquid crystal of unknown type)
1 | CCCCCCCC/C=C\CCCCCCCC(=O)O.NCCO [2-hydroxyethylammonium oleate] | 1.496 ± 0.00069 | 1.49406 ± 0.00068 | 1.48994 ± 0.00068 | 1.48558 ± 0.00068 | 1.48343 ± 0.00068 | 1.47901 ± 0.00068 | 1.4747 ± 0.00068 |  |  |  |  |  |  |  |  | 
2 | CCCCCCCC/C=C\CCCCCCCC(=O)[O-].OCC[NH2+]CCO [bis(2-hydroxyethyl)ammonium oleate] |  |  |  |  |  |  |  | 1.4956 ± 0.00068 | 1.49226 ± 0.00068 | 1.48855 ± 0.00068 | 1.48463 ± 0.00068 | 1.48023 ± 0.00068 | 1.47673 ± 0.00068 | 1.47267 ± 0.00068 | 1.47055 ± 0.00075 | 1.46364 ± 0.00094
